Key:
[1] = Volume of distribution at steady state in Beagle dog at 3 mg/kg, iv; format: ADME, organism-based, Canis lupus familiaris; set-up: dose 3 mg/kg, route intravenous; settings: in vivo, read-out: Vdss
[2] = Apparent terminal half life in Balb/c mouse plasma at 3 mg/kg, iv by LC-MS/MS analysis; format: ADME, organism-based; set-up: dose 3 mg/kg, route intravenous; settings: read-out: betat1/2(app) (converted)
[3] = Volume of distribution at steady state in Balb/c mouse plasma at 3 mg/kg, iv by LC-MS/MS analysis; format: ADME, organism-based; set-up: dose 3 mg/kg, route intravenous; settings: read-out: Vdss
[4] = target: Phosphatidylinositol 4-phosphate 3-kinase C2 domain-containing subunit alpha (Homo sapiens, UniProt O00443); experiment: Inhibition of PI3KC2alpha (unknown origin)
[5] = Oral bioavailability in Balb/c mouse plasma at 100 mg/kg by LC-MS/MS analysis; format: ADME, organism-based
[6] = test system: Mus musculus; experiment: Toxicity in SCID mouse xenografted with BRAF-V600E/PTEN-deficient human UACC62 cells at 150 mg/kg, po bid; format: organism-based, UACC-62; set-up: dose 150 mg/kg, route oral; settings: in vivo
[7] = Plasma concentration in SCID mouse xenografted with PTEN-deficient human PC3 cells at 100 mg/kg, po after 4 hrs; format: ADME, organism-based, PC-3; set-up: dose 100 mg/kg, route oral
[8] = AUC (infinity) in Balb/c mouse plasma at 3 mg/kg, iv by LC-MS/MS analysis; format: ADME, organism-based; set-up: time infinity, dose 3 mg/kg, route intravenous
[9] = Plasma concentration in SCID mouse xenografted with PTEN-deficient human PC3 cells at 100 mg/kg, po after 1 hr; format: ADME, organism-based, PC-3; set-up: dose 100 mg/kg, route oral
[10] = Clearance in Beagle dog at 3 mg/kg, iv; format: ADME, organism-based, Canis lupus familiaris; set-up: dose 3 mg/kg, route intravenous; settings: in vivo
[11] = Cmax in nude rat at 10 mg/kg, po; format: ADME, organism-based; set-up: dose 10 mg/kg, route oral; settings: in vivo
[12] = target: Phosphatidylinositol 4-phosphate 3-kinase C2 domain-containing subunit beta (Homo sapiens, UniProt O00750); experiment: Inhibition of PI3KC2beta (unknown origin)
[13] = test system: Plasma; experiment: Fraction unbound in SCID mouse plasma xenografted with BRAF-V600E/PTEN-deficient human UACC62 cells at 100 mg/kg, po; format: ADME, organism-based, UACC-62; set-up: dose 100 mg/kg, route oral; settings: in vivo
[14] = test system: Mus musculus; experiment: Toxicity in SCID mouse xenografted with BRAF-V600E/PTEN-deficient human UACC62 cells assessed as body weight loss at 150 mg/kg, po bid; format: organism-based, UACC-62; set-up: dose 150 mg/kg, route oral; settings: in vivo
[15] = Tmax in Balb/c mouse plasma at 100 mg/kg, po by LC-MS/MS analysis; format: ADME, organism-based; set-up: dose 100 mg/kg, route oral
[16] = Volume of distribution at steady state in nude rat at 3 mg/kg, iv; format: ADME, organism-based; set-up: dose 3 mg/kg, route intravenous; settings: in vivo, read-out: Vdss
[17] = target: Serine/threonine-protein kinase mTOR (Homo sapiens, UniProt P42345); experiment: Inhibition of mTOR (unknown origin)
[18] = Cmax in Balb/c mouse plasma at 10 mg/kg, po after 15 to 30 mins by LC-MS/MS analysis; format: ADME, organism-based; set-up: dose 10 mg/kg, route oral
[19] = target: T1, Phosphatidylinositol 4,5-bisphosphate 3-kinase catalytic subunit beta isoform (Homo sapiens, UniProt P42338); settings: PC-3
Target sequence in this assay (P42338 whole entry, looked up, canonical isoform): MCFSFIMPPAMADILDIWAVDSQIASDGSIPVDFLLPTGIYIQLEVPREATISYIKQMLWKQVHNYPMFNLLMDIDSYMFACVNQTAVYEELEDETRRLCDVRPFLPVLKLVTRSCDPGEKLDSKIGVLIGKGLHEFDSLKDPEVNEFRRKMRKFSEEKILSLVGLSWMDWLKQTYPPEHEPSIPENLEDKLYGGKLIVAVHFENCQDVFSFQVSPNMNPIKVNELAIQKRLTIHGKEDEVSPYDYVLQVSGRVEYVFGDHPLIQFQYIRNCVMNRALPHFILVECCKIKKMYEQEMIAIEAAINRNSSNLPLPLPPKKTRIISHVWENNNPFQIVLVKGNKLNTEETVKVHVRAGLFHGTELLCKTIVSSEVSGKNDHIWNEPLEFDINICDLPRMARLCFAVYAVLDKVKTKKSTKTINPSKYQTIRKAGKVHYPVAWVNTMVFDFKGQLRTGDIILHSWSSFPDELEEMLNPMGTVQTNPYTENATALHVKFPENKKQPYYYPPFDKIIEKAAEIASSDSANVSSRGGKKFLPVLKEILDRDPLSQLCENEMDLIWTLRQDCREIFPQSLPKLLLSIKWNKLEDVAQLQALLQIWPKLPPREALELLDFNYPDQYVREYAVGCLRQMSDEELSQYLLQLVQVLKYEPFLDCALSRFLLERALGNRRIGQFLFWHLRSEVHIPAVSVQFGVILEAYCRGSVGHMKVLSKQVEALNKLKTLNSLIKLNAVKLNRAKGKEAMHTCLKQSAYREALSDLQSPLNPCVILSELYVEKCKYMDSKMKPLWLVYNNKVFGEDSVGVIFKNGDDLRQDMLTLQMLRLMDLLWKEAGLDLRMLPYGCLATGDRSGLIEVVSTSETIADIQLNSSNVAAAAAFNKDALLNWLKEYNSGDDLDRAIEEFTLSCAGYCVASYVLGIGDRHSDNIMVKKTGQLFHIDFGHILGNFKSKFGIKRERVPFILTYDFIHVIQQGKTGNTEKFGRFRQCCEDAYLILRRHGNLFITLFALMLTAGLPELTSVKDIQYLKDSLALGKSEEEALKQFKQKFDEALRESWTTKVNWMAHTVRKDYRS

[20] = Half life in nude rat at 3 mg/kg, iv; format: ADME, organism-based; set-up: dose 3 mg/kg, route intravenous; settings: in vivo
[21] = target: T1, Phosphatidylinositol 4,5-bisphosphate 3-kinase catalytic subunit beta isoform; experiment: Inhibition of PI3Kbeta-mediated Akt phosphorylation at S473 in PTEN-deficient human PC3 cells after 0.5 to 2 hrs by Immunoblotting assay; format: cell-based, PC-3
Target sequence in this assay (P42338 whole entry, canonical isoform): as the sequence (P42338 whole entry, looked up, canonical isoform) above

[22] = Half life in nude rat at 10 mg/kg, po; format: ADME, organism-based; set-up: dose 10 mg/kg, route oral; settings: in vivo
[23] = test system: Mus musculus; experiment: In vivo inhibition of PI3Kbeta in tumor of po dosed SCID mouse xenografted with PTEN-deficient human PC3 cells assessed as inhibition of Akt phosphorylation at S473; format: functional, organism-based; settings: PC-3
[24] = Plasma concentration in Balb/c mouse at 100 mg/kg, po measured for 5 hrs; format: ADME, organism-based; set-up: dose 100 mg/kg, route oral
[25] = test system: Mus musculus; experiment: Toxicity in SCID mouse xenografted with PTEN-deficient human PC3 cells at 150 mg/kg, po bid; format: organism-based, PC-3; set-up: dose 150 mg/kg, route oral; settings: in vivo
[26] = Apparent permeability in human Caco2 cells at 5 uM after 20 mins; settings: Caco-2
[27] = Oral bioavailability in Beagle dog at 10 mg/kg; format: ADME, organism-based, Canis lupus familiaris; settings: in vivo
[28] = Tmax in Balb/c mouse plasma at 10 mg/kg, po by LC-MS/MS analysis; format: ADME, organism-based; set-up: dose 10 mg/kg, route oral
[29] = Fraction unbound in SCID mouse plasma xenografted with PTEN-deficient human PC3 cells at 100 mg/kg, po; format: ADME, organism-based, PC-3; set-up: dose 100 mg/kg, route oral
[30] = Cmax in Beagle dog at 3 mg/kg, iv; format: ADME, organism-based, Canis lupus familiaris; set-up: dose 3 mg/kg, route intravenous; settings: in vivo
[31] = AUC (infinity) in nude rat at 3 mg/kg, iv; format: ADME, organism-based; set-up: time infinity, dose 3 mg/kg, route intravenous; settings: plasma
[32] = Tmax in Beagle dog at 3 mg/kg, iv; format: ADME, organism-based, Canis lupus familiaris; set-up: dose 3 mg/kg, route intravenous; settings: in vivo
[33] = target: T1, Phosphatidylinositol 4,5-bisphosphate 3-kinase catalytic subunit beta isoform; experiment: Inhibition of PI3Kbeta-mediated Akt phosphorylation at S473 in BRAF-V600E/PTEN-deficient human UACC62 cells; format: cell-based, UACC-62
Target sequence in this assay (P42338 whole entry, canonical isoform): as the sequence (P42338 whole entry, looked up, canonical isoform) above

[34] = Plasma concentration in Balb/c mouse at 100 mg/kg, po measured for 12 hrs; format: ADME, organism-based; set-up: dose 100 mg/kg, route oral
[35] = target: Phosphatidylinositol 3-kinase catalytic subunit type 3 (Homo sapiens, UniProt Q8NEB9); experiment: Inhibition of VPS34 (unknown origin)
[36] = test system: Mus musculus; experiment: Toxicity in SCID mouse xenografted with PTEN-deficient human PC3 cells assessed as body weight loss at 150 mg/kg, po bid; format: organism-based, PC-3; set-up: dose 150 mg/kg, route oral; settings: in vivo
[37] = Apparent terminal half life in Balb/c mouse plasma at 10 mg/kg, po by LC-MS/MS analysis; format: ADME, organism-based; set-up: dose 10 mg/kg, route oral; settings: read-out: betat1/2(app) (converted)
[38] = Cmax in nude rat at 3 mg/kg, iv; format: ADME, organism-based; set-up: dose 3 mg/kg, route intravenous; settings: in vivo
[39] = Tmax in nude rat at 10 mg/kg, po; format: ADME, organism-based; set-up: dose 10 mg/kg, route oral; settings: in vivo
[40] = Oral bioavailability in Balb/c mouse plasma at 10 mg/kg by LC-MS/MS analysis; format: ADME, organism-based
[41] = AUC (infinity) in Balb/c mouse plasma at 10 mg/kg, po by LC-MS/MS analysis; format: ADME, organism-based; set-up: time infinity, dose 10 mg/kg, route oral
[42] = target: Cytochrome P450 3A4 (Homo sapiens, UniProt P08684); experiment: Inhibition of recombinant human CYP3A4
[43] = test system: Mus musculus; experiment: In vivo inhibition of PI3Kbeta in tumor of SCID mouse xenografted with PTEN-deficient human PC3 cells assessed as inhibition of Akt phosphorylation at S473 at 100 mg/kg, po up to 7 hrs; format: functional; settings: PC-3, 7 h
[44] = AUC (infinity) in nude rat at 10 mg/kg, po; format: ADME, organism-based; set-up: time infinity, dose 10 mg/kg, route oral; settings: plasma
[45] = test system: UACC-62; experiment: Antitumor activity against BRAF-V600E/PTEN-deficient human UACC62 cells xenografted in SCID mouse assessed as tumor growth inhibition at 150 mg/kg, po bid measured on day 15; format: functional
[46] = Apparent terminal half life in Balb/c mouse plasma at 100 mg/kg, po by LC-MS/MS analysis; format: ADME, organism-based; set-up: dose 100 mg/kg, route oral; settings: read-out: betat1/2(app) (converted)
[47] = Clearance in Balb/c mouse plasma at 3 mg/kg, iv by LC-MS/MS analysis; format: ADME, organism-based; set-up: dose 3 mg/kg, route intravenous
[48] = Cmax in Beagle dog at 10 mg/kg, po; format: ADME, organism-based, Canis lupus familiaris; set-up: dose 10 mg/kg, route oral; settings: in vivo
[49] = test system: Mus musculus; experiment: In vivo inhibition of PI3Kbeta in tumor of SCID mouse xenografted with BRAF-V600E/PTEN-deficient human UACC62 cells assessed as inhibition of Akt phosphorylation at S473 at 200 mg/kg, po up to 6 hrs; format: functional; settings: UACC-62, 6 h
[50] = Cmax in Balb/c mouse plasma at 3 mg/kg, iv by LC-MS/MS analysis; format: ADME, organism-based; set-up: dose 3 mg/kg, route intravenous

Sequence of Phosphatidylinositol 4-phosphate 3-kinase C2 domain-containing subunit beta (O00750 whole entry, the tested form may be a part): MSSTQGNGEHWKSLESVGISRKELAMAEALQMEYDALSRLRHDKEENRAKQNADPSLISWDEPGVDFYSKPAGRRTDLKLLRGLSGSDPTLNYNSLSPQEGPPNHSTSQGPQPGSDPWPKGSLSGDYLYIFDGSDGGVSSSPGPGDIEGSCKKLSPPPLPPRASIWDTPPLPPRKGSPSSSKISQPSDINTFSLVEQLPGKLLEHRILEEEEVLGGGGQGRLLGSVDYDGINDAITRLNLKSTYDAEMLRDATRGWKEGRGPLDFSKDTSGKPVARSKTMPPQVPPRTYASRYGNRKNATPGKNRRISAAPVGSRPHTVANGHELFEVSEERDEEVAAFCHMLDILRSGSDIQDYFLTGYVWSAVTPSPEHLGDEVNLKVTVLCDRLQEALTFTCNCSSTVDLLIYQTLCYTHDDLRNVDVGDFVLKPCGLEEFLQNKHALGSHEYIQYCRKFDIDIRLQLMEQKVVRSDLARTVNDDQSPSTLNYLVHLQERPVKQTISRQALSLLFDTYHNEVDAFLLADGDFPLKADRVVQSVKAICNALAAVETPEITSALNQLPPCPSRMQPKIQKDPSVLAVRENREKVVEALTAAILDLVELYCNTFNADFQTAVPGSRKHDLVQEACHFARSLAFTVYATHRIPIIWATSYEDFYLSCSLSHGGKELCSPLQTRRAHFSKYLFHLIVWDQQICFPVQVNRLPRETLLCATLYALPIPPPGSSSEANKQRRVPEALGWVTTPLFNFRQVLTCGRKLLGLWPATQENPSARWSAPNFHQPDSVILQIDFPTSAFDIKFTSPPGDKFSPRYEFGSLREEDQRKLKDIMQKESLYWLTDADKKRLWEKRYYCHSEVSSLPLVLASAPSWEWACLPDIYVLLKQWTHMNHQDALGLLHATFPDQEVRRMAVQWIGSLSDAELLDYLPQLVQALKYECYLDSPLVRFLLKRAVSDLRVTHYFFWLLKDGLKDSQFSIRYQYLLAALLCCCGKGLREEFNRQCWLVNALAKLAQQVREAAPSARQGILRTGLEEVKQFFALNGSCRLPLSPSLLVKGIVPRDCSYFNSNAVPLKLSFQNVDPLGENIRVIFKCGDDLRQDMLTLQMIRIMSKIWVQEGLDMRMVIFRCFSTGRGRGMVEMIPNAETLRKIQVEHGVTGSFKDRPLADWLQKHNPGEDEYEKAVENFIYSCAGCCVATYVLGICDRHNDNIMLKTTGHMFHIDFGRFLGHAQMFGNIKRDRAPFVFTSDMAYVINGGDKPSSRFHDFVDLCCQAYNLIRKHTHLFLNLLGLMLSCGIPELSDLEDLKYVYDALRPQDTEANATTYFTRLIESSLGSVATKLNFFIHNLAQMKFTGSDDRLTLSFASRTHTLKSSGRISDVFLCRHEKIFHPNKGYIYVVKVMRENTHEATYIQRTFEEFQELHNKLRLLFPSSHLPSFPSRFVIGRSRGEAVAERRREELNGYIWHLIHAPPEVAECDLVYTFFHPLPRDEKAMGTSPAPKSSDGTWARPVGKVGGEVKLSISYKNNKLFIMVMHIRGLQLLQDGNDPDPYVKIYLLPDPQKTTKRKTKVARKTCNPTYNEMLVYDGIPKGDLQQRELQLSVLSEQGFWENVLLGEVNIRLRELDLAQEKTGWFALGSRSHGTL
Sequence of Phosphatidylinositol 4-phosphate 3-kinase C2 domain-containing subunit alpha (O00443 whole entry, the tested form may be a part): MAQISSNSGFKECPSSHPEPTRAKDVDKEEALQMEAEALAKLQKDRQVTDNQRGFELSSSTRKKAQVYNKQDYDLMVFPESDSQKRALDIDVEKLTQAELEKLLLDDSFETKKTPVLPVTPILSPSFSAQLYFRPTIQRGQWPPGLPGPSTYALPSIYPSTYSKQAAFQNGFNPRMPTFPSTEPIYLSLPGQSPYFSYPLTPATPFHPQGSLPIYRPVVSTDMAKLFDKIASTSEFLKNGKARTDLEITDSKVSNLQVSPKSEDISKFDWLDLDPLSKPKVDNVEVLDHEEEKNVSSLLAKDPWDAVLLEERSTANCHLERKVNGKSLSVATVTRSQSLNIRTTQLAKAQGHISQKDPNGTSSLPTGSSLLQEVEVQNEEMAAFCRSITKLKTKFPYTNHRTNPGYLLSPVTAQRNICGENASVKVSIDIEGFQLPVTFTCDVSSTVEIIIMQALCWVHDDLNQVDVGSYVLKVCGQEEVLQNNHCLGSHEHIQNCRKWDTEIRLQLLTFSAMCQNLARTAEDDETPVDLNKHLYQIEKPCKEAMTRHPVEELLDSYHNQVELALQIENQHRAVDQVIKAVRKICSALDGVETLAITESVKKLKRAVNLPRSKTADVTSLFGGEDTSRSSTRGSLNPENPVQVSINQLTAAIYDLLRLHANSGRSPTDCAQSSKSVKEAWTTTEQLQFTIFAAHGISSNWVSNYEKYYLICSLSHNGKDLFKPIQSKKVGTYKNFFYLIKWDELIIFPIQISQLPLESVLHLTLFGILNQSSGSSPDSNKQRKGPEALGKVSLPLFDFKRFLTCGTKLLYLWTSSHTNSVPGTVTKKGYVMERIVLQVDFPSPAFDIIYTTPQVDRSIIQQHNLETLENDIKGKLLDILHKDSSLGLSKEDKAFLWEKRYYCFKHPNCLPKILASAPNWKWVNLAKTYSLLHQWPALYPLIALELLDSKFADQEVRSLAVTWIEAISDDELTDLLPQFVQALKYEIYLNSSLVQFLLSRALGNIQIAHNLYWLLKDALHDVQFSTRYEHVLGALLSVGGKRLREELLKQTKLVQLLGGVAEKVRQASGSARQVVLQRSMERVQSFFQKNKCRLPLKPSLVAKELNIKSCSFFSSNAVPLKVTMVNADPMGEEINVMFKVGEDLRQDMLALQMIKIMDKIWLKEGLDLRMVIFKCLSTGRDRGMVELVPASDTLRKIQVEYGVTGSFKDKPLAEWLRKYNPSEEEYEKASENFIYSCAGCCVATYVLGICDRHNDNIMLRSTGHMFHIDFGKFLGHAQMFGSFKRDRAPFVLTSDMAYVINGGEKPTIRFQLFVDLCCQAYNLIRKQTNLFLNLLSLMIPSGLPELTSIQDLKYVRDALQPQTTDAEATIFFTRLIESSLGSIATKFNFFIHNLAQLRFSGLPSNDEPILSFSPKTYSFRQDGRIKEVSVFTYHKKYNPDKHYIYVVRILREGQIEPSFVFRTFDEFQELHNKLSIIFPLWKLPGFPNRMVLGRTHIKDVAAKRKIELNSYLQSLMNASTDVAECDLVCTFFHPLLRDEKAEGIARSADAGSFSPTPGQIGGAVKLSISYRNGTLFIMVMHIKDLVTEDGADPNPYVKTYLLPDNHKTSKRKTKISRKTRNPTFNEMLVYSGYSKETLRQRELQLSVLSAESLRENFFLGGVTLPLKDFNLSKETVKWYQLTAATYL
Sequence of Cytochrome P450 3A4 (P08684 whole entry): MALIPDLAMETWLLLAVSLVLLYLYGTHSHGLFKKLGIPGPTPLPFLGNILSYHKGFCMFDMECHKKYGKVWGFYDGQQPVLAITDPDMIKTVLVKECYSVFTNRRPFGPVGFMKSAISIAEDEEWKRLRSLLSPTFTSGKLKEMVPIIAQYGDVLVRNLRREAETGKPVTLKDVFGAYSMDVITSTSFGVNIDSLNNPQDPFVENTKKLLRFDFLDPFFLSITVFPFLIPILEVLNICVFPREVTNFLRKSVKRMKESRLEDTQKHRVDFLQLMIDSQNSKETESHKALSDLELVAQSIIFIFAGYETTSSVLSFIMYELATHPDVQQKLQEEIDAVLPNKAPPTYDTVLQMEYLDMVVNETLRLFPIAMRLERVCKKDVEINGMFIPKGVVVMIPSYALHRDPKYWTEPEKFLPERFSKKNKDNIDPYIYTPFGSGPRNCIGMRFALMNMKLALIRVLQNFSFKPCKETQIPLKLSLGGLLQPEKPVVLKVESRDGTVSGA

C[C@H]1Cc2ccccc2N1C(=O)Cc1nc(N2CCOCC2)cc(=O)[nH]1 [SAR-260301]
Vd [1]: > 3 L/kg | half-life [2]: 52.2 min | Vd [3]: 1 L/kg | IC50 [4]: > 10 µM | bioavailability [5]: 55% | Activity [6]: Non-toxic | concentration at 4 h [7]: 14.2 µM | AUC(0-inf) [8]: 600 ng·h/mL | concentration at 1 h [9]: 24.9 µM | clearance [10]: 6.67 mL/min/kg | Cmax [11]: 1460 ng/mL | IC50 [12]: > 1000 nM | Cp(f) [13]: 1.82 µM | Activity [14]: Non-toxic | Tmax [15]: 15 min | Vd [16]: 8.1 L/kg | IC50 [17]: > 10 µM | Cmax [18]: 848 ng/mL | IC90 [19]: 2 nM | half-life [20]: 52.2 min | IC50 [21]: 49 nM | half-life [22]: 414 min | EC50 [23]: 680 nM | concentration at 5 h [24]: > 1000 nM | Activity [25]: Non-toxic | Papp at 20 min, 5 µM [26]: 4.8 ×10⁻⁶ cm/s | bioavailability [27]: 67% | Tmax [28]: 15 min | fraction unbound [29]: 0.4 | Cmax [30]: 4920 ng/mL | AUC(0-inf) [31]: 864 ng·h/mL | Tmax [32]: 30 min | IC50 [33]: 60 nM | concentration at 12 h [34]: > 100 nM | IC50 [35]: 183 nM | Activity [36]: Non-toxic | half-life [37]: 84 min | Cmax [38]: 1200 ng/mL | Tmax [39]: 15 min | bioavailability [40]: 30% | AUC(0-inf) [41]: 610 ng·h/mL | IC50 [42]: 40 µM | inhibition in vivo at 100 mg/kg [43]: ≥ 50% | AUC(0-inf) [44]: 2410 ng·h/mL | T/C [45]: 39% | half-life [46]: 150 min | clearance [47]: 83.3 mL/min/kg | Cmax [48]: 4770 ng/mL | inhibition in vivo at 200 mg/kg [49]: > 50% | Cmax [50]: 1870 ng/mL

From ChEMBL document CHEMBL3112424, “Discovery and optimization of pyrimidone indoline amide PI3Kβ inhibitors for the treatment of phosphatase and tensin homologue (PTEN)-deficient cancers” (J Med Chem, 2014)
